This is an account of results in patent US8367835B2, “Cyclic amine-1-carboxylic acid ester derivative and pharmaceutical composition containing the same” (Dainippon Sumitomo Pharma Co., Ltd., priority 2008, dated 2013).

T1 sequence (O35433 whole entry): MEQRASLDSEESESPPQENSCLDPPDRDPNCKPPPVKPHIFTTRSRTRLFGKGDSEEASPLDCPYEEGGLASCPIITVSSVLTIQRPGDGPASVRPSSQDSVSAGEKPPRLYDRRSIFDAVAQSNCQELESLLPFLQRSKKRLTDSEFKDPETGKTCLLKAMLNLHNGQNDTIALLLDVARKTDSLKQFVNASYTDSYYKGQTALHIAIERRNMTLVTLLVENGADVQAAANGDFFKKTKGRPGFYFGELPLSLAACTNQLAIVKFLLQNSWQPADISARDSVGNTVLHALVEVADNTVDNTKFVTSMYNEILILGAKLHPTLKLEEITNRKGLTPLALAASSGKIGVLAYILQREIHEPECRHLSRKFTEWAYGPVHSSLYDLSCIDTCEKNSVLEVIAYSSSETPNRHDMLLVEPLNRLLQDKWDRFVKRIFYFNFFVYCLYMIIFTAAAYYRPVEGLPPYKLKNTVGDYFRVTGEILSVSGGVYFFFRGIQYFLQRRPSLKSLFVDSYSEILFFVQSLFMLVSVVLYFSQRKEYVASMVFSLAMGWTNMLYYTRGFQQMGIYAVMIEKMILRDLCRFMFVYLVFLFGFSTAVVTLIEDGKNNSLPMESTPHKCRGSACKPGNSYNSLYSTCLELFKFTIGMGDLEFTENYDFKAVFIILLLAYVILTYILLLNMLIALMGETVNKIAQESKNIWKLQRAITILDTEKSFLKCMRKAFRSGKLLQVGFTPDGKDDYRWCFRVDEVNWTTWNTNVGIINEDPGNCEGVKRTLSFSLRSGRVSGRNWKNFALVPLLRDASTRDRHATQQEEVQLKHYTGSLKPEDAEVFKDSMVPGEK

One assay concerns the target T1, TRPV1 (Rattus norvegicus, UniProt O35433).
T1 construct: using cultured rat dorsal root ganglion cells which express TRPV1 abundantly; endogenous in cells; host or cells: primary culture of dorsal root ganglion cells from 7 day old Wistar rat
As to the kind of experiment: TRPV1 agonist activity by intracellular calcium level (FLIPR method). The class given is cell-based. The conditions noted are these: 1 μM; rat dorsal root ganglion primary culture cells; read-out: Value (%) when fluorescence intensity for capsaicin (1 μM) is 100%. The text has this: The test is to measure the elevation of intracellular calcium level as the indicator of TRPV1 agonist activity of a test compound using cultured rat dorsal root ganglion cells which express TRPV1 abundantly, and carried out in accordance with the method of Jerman et al. (Jerman, J. C. et al., Comparison of effects of anandamide at recombinant and endogenous rat vanilloid receptors. Br J Anaesth, 2002. 89(6): p. 882-7). More specifically, the dorsal root ganglion was removed from a 7 day old Wistar rat, and the cells were isolated by collagenase-trypsin treatment. Subsequently, the primary cells was cultured in a CO2 incubator controlled at 5% CO2 and 37° C. for 2 days. The culture medium used was Neurobasal™ medium supplemented with L-glutamine, nerve growth factor, N-2-Supplement, Penicillin-Streptomycin, 5-Fluoro-2′-deoxyuridine (culture day 1 only) were added to.
FLIPR^TETRA system (Molecular Devices Corp.) was used to measure the intracellular calcium concentration. As an indicator of TRPV1 agonistic activity, the fluorescence intensity elevation was monitored when a test compound is applied to the rat dorsal root ganglion primary culture cells loaded with a calcium-sensitive fluorescent reagent.
On the technique in general: A change in cytosolic calcium serves as a functional read-out for many receptors and channels.
For the compound `COc1cc(CNC(=O)C2CCN(C(=O)O[C@H]3CC[C@@H](C(C)(C)C)CC3)CC2)ccc1O` [Example 5], the Emax at 1 µM amounted to 84%. In the case of `CC[C@H]1CC[C@@H](OC(=O)N2CC[C@H](C(=O)NCc3ccc(O)c(OC)c3)C2)CC1` [Example 28], the Emax at 1 µM is 81%. For the compound `CCC1(CC)CCC(OC(=O)N2CCC(C(=O)NCc3ccc(O)c(OC)c3)CC2)CC1` [Example 7], the Emax at 1 µM amounted to 90%. `COc1cc(CNC(=O)C2CCN(C(=O)OC3CCCCC3)CC2)ccc1O` [Example 48, cyclohexyl 4-(4-hydroxy-3-methoxybenzylcarbamoyl)-piperidine-1-carboxylate]: the Emax at 1 µM stood at 77%. For `COc1cc(CNC(=O)C2CCN(C(=O)O[C@@H]3C[C@H](C)C[C@H](C)C3)CC2)ccc1O` [Example 12], the Emax at 1 µM worked out at 92%. Regarding `COc1cc(CNC(=O)[C@@H]2CCN(C(=O)O[C@H]3CC[C@@H](C(C)(C)C)CC3)C2)ccc1O` [Example 34], the Emax at 1 µM came to 72%.

With `CC[C@H]1CC[C@@H](OC(=O)N2CC(C(=O)NCc3ccc(O)c(OC)c3)C2)CC1` [Example 15], the Emax at 1 µM stood at 83%. With `CC[C@H]1CCCC[C@H]1OC(=O)N1CCC(C(=O)NCc2ccc(O)c(OC)c2)CC1` (relative stereo) [Example 13, cis-2-ethylcyclohexyl 4-(4-hydroxy-3-methoxybenzylcarbamoyl)-piperidine-1-carboxylate], the Emax at 1 µM worked out at 81%. For `COc1cc(CNC(=O)[C@H]2CCN(C(=O)OC3CCC(C)(C)CC3)C2)ccc1O` [Example 27, 4,4-dimethylcyclohexyl (S)-3-(4-hydroxy-3-methoxybenzylcarbamoyl)-pyrrolidine-1-carboxylate], the Emax at 1 µM came out at 86%.

Take `COc1cc(CNC(=O)C2CN(C(=O)OC3CC(C)(C)CC(C)(C)C3)C2)ccc1O` [Example 19]: the Emax at 1 µM came out at 84%. For the compound `COc1cc(CNC(=O)C2CCN(C(=O)OC3CCCCCC3)CC2)ccc1O` [Example 39], the Emax at 1 µM came to 91%.

`COc1cc(CNC(=O)C2CN(C(=O)O[C@H]3CC[C@H](C(C)C)CC3)C2)ccc1O` [Example 25]: the Emax at 1 µM stood at 71%. On the same count and under the same terms, the figure for `COc1cc(CNC(=O)C2CCN(C(=O)Oc3cccc(C(C)C)c3)CC2)ccc1O` [Example 43] is 68%.

With `COc1cc(CNC(=O)[C@H]2CCN(C(=O)O[C@H]3CC[C@@H](C(C)(C)C)CC3)C2)ccc1O` [Example 30], the Emax at 1 µM came out at 78%. On the same count and under the same terms, the figure for `CCC1(CC)CCC(OC(=O)N2CC[C@@H](C(=O)NCc3ccc(O)c(OC)c3)C2)CC1` [Example 33] is 73%. Regarding `COc1cc(CNC(=O)C2CN(C(=O)O[C@H]3CCC[C@H](C)C3)C2)ccc1O` [Example 18], the Emax at 1 µM is 86%. Turning to `CC[C@H]1CC[C@@H](OC(=O)N2CC[C@@H](C(=O)NCc3ccc(O)c(OC)c3)C2)CC1` [Example 32], the Emax at 1 µM stood at 78%.

Regarding `COc1cc(CNC(=O)C2CCN(C(=O)O[C@H]3CC[C@H](C(C)(C)C)CC3)CC2)ccc1O` [Example 6], the Emax at 1 µM was 80%. Still for that read-out and setting: in the case of `C=C(C)[C@@H]1CC[C@@H](C)C[C@H]1OC(=O)N1CC(C(=O)NCc2ccc(O)c(OC)c2)C1` [Example 26, (1R,2S,5R)-2-isopropenyl-5-methylcyclohexyl 3-(4-hydroxy-3-methoxybenzylcarbamoyl)-azetidine-1-carboxylate] it was 82%; in that of `COc1cc(CNC(=O)C2CCN(C(=O)O[C@@H]3CCC[C@H](C)C3)CC2)ccc1O` [Example 9], 83%; in that of `CCCC[C@H]1CC[C@H](OC(=O)N2CC(C(=O)NCc3ccc(O)c(OC)c3)C2)CC1` [Example 23], 77%. Regarding `COc1cc(CNC(=O)C2CCN(C(=O)Oc3ccc(C(C)C)cc3)CC2)ccc1O` [Example 44], the Emax at 1 µM was determined as 83%. Consider `COc1cc(CNC(=O)C2CCN(C(=O)OCC3CCCCC3)CC2)ccc1O` [Example 40], for which the Emax at 1 µM was 91%. Regarding `COc1cc(CNC(=O)C2CCN(C(=O)O[C@H]3CC[C@H](C)CC3)CC2)ccc1O` [Example 4], the Emax at 1 µM was determined as 80%. Still for that read-out and setting: in the case of `CCCC[C@H]1CC[C@@H](OC(=O)N2CC(C(=O)NCc3ccc(O)c(OC)c3)C2)CC1` [Example 22] it was 80%. Turning to `COc1cc(CNC(=O)C2CN(C(=O)Oc3ccccc3C3CCCC3)C2)ccc1O` [Example 46, 2-cyclopentylphenyl 3-(4-hydroxy-3-methoxybenzylcarbamoyl)-azetidine-1-carboxylate], the Emax at 1 µM came to 68%. In the case of `CCC1(CC)CCC(OC(=O)N2CC[C@H](C(=O)NCc3ccc(O)c(OC)c3)C2)CC1` [Example 29], the Emax at 1 µM worked out at 83%.

For the compound `COc1cc(CNC(=O)C2CCN(C(=O)Oc3ccccc3C(C)C)CC2)ccc1O` [Example 41, 2-isopropylphenyl 4-(4-hydroxy-3-methoxybenzylcarbamoyl)-piperidine-1-carboxylate], the Emax at 1 µM turned out to be 83%. The same measure, in the same setting: the figure for `COc1cc(CNC(=O)C2CN(C(=O)O[C@@H]3C[C@H](C)CC[C@H]3C(C)C)C2)ccc1O` [Example 20] is 73%; for `COc1cc(CNC(=O)C2CN(C(=O)Oc3ccccc3C(C)C)C2)ccc1O` [Example 45, 2-isopropylphenyl 3-(4-hydroxy-3-methoxybenzylcarbamoyl)-azetidine-1-carboxylate] it is 72%; for `COc1cc(CNC(=O)[C@@H]2CCN(C(=O)OC3CCC(C)(C)CC3)C2)ccc1O` [Example 31, 4,4-dimethylcyclohexyl (R)-3-(4-hydroxy-3-methoxybenzylcarbamoyl)-pyrrolidine-1-carboxylate] it is 68%. Regarding `COc1cc(CNC(=O)C2CN(C(=O)O[C@H]3CC[C@@H](C(C)C)CC3)C2)ccc1O` [Example 24], the Emax at 1 µM is 84%.

Regarding `COc1cc(CNC(=O)C2CN(C(=O)O[C@H]3C[C@H](C)CC[C@H]3C(C)C)C2)ccc1O` [Example 21], the Emax at 1 µM came out at 85%. In the case of `COc1cc(CNC(=O)C2CCN(C(=O)Oc3ccccc3C3CCCC3)CC2)ccc1O` [Example 42], the Emax at 1 µM was 72%. On the same count and under the same terms, in the case of `COc1cc(CNC(=O)C2CCN(C(=O)O[C@H]3CCC[C@H](C)C3)CC2)ccc1O` [Example 10] it was 92%. On to `COc1cc(CNC(=O)C2CCN(C(=O)O[C@H]3CC[C@@H](C)CC3)CC2)ccc1O` [Example 3], for which the Emax at 1 µM is 80%.

Staying with this assay, now noted: read-out: Value (%) when fluorescence intensity for capsaicin (1 μM) is 100%, 1 μM; rat dorsal root ganglion primary culture cells.
Turning to `COc1cc(CNC(=O)C2CCN(C(=O)O[C@@H]3CCCC[C@@H]3C)CC2)ccc1O` [Example 11], the Emax at 1 µM was 94%. As to `COc1cc(CNC(=O)C2CCN(C(=O)O[C@H]3CCCC[C@@H]3C)CC2)ccc1O` (relative stereo) [Example 47, (1S*,2S*)-2-methylcyclohexyl 4-(4-hydroxy-3-methoxybenzylcarbamoyl)-piperidine-1-carboxylate], the Emax at 1 µM turned out to be 85%. With `COc1cc(CNC(=O)C2CN(C(=O)O[C@H]3CC[C@H](C(C)(C)C)CC3)C2)ccc1O` [Example 17], the Emax at 1 µM is 82%.
